Measured values taken from ChEMBL document CHEMBL1201862, “PubChem BioAssay data set” (2004).
Calls of active or inactive are those of the source.

Tests used:
H9c2 = assay: cells; type: functional, cell-based; conditions: Rattus norvegicus, H9c2, Myocardium;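 further: confirmatory concentration-response retest of ultra-high-throughput screening hits for modulation of myocardial damage; cell death induced by hydrogen peroxide oxidative stress; compound pretreatment for 60 min then peroxide exposure for 2 h; potency is for protecting the cells against peroxide damage rather than for killing them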
[1] = target: T1, Small ubiquitin-related modifier 1 (Homo sapiens, UniProt P63165); assay: SUMO1 protein-protein binding blockers, potency – biochemical, FRET, dose response (AID 624383); type: functional; conditions: read-out: IC50_Mean
T1 sequence (P63165 whole entry): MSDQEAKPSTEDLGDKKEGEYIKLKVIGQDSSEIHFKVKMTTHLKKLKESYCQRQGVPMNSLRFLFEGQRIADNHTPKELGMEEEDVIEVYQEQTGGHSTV

[2] = target: T1, Small ubiquitin-related modifier 1; assay: SUMO1 protein interaction blockers, potency – biochemical, fluorescence polarization, uHTS hits, dose response (AID 624382); type: functional; conditions: read-out: IC50_Mean
Nonstructural protein 1 = Nonstructural protein 1 (Influenza A virus, UniProt Q194T2); type: functional, Influenza A virus (A/California/07/2009(H1N1))
Sequence of Nonstructural protein 1 (Q194T2 whole entry): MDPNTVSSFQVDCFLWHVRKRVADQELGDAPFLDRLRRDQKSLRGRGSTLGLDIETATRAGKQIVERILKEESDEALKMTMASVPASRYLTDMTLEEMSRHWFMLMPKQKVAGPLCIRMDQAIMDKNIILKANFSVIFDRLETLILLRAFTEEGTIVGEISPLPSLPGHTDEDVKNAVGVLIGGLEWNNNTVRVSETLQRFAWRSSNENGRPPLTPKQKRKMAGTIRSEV

Genome polyprotein = Genome polyprotein (dengue virus type 2, UniProt P29990); assay: flavivirus cap methylation enzyme inhibition – biochemical, confirmation dose response, primary screen (AID 588689); type: functional
Sequence of Genome polyprotein (P29990 2492-3391 limits assumed): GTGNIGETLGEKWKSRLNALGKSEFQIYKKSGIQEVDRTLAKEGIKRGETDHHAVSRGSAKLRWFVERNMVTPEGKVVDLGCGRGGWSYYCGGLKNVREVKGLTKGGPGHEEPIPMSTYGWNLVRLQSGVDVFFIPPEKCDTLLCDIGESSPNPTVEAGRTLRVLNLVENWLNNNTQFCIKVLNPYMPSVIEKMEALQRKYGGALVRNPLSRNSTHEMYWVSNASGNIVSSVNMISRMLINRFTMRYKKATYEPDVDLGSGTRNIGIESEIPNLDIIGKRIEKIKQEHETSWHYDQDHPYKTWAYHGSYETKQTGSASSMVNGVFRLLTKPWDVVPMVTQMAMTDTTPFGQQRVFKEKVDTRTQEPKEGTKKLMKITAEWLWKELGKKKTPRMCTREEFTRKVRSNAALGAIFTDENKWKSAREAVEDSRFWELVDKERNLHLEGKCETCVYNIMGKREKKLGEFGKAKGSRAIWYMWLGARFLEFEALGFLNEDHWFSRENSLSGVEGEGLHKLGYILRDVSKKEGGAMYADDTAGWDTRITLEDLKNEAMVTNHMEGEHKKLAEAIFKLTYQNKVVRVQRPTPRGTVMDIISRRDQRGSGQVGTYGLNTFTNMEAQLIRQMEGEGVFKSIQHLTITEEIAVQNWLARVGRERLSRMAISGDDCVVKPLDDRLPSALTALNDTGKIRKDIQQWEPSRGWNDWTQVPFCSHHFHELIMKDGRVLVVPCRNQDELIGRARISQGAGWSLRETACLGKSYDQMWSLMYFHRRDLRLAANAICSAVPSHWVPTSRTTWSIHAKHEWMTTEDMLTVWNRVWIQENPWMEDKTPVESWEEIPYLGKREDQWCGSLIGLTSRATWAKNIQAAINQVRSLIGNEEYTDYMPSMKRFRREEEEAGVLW

[3] = target: Heat shock protein HSP 90-alpha (Homo sapiens, UniProt P07900); type: functional, organism-based
SN12K1 = assay: cells; type: functional; conditions: Homo sapiens
[4] = Luminescence Cell-Based Dose Confirmation HTS to Identify Inhibitors of Platelet Dense Granule Release. [Related pubchem assays: 1663 (Primary HTS), 1678 (Summary of Project)]; type: functional
[5] = target: Luciferin 4-monooxygenase (Photinus pyralis, UniProt P08659); assay: inhibition of purified Photinus pyralis luciferase – biochemical, luminescence, dose response (AID 1891)
Sequence of Luciferin 4-monooxygenase (P08659 whole entry, the tested form may be a part): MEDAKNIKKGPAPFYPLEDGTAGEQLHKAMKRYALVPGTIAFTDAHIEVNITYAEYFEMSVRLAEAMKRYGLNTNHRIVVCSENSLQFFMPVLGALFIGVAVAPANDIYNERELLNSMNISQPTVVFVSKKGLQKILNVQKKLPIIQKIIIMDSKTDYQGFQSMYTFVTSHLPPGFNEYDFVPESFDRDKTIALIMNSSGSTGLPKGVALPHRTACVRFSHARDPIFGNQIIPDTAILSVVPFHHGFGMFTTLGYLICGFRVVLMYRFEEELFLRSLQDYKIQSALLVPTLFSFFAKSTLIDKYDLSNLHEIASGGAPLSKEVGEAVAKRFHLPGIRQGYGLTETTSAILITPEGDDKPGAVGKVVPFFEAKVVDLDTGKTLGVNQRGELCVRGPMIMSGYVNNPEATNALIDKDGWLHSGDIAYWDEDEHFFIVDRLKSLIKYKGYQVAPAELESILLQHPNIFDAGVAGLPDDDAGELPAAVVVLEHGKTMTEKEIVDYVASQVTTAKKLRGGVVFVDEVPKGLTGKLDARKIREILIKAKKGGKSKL

[6] = HIV-1 AD8 envelope cell-cell fusion blockers – cherry-pick, dose response (AID 652062); type: functional, cell-based;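 further: luciferase signal from cell-cell fusion driven by HIV-1 clade B AD8 Env; potency is for inhibitors of fusion seen as a drop in luminescence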
[7] = blockers of HIV-1 envelope-mediated cell-cell fusion – cherry-pick, dose response (AID 652057); type: functional, cell-based
[8] = blockers of HIV-1 ZM109 envelope-driven cell-cell fusion – HeLa effector, CEM target cells, luciferase, cherry-pick, dose response (AID 652058); type: functional, cell-based;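 further: luciferase signal from HIV-1 Env mediated cell-cell fusion of effector and target cells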
Aminopeptidase N = target: T2, Aminopeptidase N (Plasmodium falciparum FcB1/Columbia, UniProt O96935); assay: malaria alanyl aminopeptidase activity blockers – biochemical, fluorogenic H-Leu-NHMec substrate, 1536-well (AID 1445); set-up: species or system Plasmodium falciparum 3D7, 3D7
T2 sequence (O96935 whole entry): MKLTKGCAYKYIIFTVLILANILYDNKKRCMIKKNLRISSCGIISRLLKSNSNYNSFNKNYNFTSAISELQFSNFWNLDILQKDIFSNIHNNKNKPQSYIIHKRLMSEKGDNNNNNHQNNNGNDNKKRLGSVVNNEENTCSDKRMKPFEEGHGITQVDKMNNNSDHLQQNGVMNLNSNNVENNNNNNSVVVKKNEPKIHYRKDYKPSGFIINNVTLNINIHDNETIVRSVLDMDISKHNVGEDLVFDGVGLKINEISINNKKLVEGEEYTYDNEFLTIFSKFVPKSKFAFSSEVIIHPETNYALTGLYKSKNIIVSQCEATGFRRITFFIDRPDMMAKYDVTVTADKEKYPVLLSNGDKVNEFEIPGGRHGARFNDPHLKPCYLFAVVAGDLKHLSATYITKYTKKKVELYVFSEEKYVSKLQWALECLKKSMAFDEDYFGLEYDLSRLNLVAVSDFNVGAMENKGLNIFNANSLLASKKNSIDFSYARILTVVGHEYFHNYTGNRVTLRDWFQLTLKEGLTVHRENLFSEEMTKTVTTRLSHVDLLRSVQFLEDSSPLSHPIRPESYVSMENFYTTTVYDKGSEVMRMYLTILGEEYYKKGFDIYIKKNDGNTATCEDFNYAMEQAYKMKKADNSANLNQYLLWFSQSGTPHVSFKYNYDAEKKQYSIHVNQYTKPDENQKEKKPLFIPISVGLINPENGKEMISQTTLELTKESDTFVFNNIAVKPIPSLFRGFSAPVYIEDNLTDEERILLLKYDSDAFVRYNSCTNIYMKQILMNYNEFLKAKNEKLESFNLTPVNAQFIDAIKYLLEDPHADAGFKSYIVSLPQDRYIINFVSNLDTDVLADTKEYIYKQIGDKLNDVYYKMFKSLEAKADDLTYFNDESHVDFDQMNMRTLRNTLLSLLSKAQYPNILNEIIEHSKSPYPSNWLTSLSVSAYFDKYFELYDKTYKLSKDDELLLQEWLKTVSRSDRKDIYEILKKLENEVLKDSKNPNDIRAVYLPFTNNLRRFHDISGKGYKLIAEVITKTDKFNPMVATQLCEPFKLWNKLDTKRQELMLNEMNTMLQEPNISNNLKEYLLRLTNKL

[9] = test system: Streptococcus sp. 'group A'; assay: Streptococcus pyogenes SK(-)GAS viability under kanamycin – luminescence, BacTiterGlo, confirmation, counter-screen for streptokinase expression inhibitor project, dose response (AID 1900); type: functional, organism-based
BJ [10] = assay: BJ-TERT fibroblast viability loss – cell-based, RAS-independent, luminescence, dose response (AID 1933); type: functional; conditions: Homo sapiens
Streptococcus = assay: GAS UMAA2166 growth inhibition – luminescence, BacTiterGlo, counter-screen for streptokinase expression inhibitor project, dose response (AID 1915); type: functional, organism-based;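 further: potency for reduction of bacterial viability or growth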
BJ [11] = assay: cells; type: functional, cell-based; conditions: Homo sapiens
BJ [12] = assay: BJ-TERT-LT-ST fibroblast viability loss – cell-based, RAS-independent, luminescence, dose response (AID 1935); type: functional; conditions: Homo sapiens;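 further: BJ fibroblasts immortalized with TERT plus LT and ST oncogenes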
[13] = DRD fibroblast viability loss – cell-based, non-viral oncogenic, luminescence, dose response (AID 1934); type: functional; conditions: Homo sapiens

O=C(COc1cccc2c1CCNC2=O)Nc1cccc(F)c1
IC50 (H9c2): > 79 µM (inactive)

O=C(O)CP(=O)(c1ccccc1)c1ccccc1
IC50 [1]: 100 µM (inactive)
IC50 [2]: > 66.6 µM (inactive)

CCn1c(=O)c(C(=O)NC(C)c2ccccc2)c(O)c2ccccc21 (stereo not drawn)
IC50 (H9c2): 13.5 µM (active)

COc1cccc(C=NNC(=O)c2ccncc2)c1O
IC50 (Nonstructural protein 1): 6.26 µM (active)

CCCCCCCC1=NN(c2ccc(S(=O)(=O)O)cc2)C(=O)C1N=O (stereo not drawn)
IC50 (Genome polyprotein): 27.4 µM (active)

CCN1CCCC1CN(Cc1cc2ccc(C)cc2nc1O)C(S)=Nc1ccc(F)cc1 (stereo not drawn)
AC50 [3]: 2.64 µM (active)

CCOC(=O)C(C)Oc1ccc(C2NC(=O)NC(C)=C2C(C)=O)cc1Br (stereo not drawn)
IC50 (H9c2): 30.6 µM (inactive)

O=C(O)c1ccc(N=N/C(=N\Nc2ccc(C(=O)O)cc2)c2ccccc2)cc1
IC50 (Genome polyprotein): 30.4 µM (active)

O=c1cc(O)ccn1C1C=C(CO)C(O)C1O (stereo not drawn)
GI50 (SN12K1): > 625 µM (inactive)

Oc1ccc(/C=N/NC(=S)N/N=C/c2ccc(O)cc2)cc1
EC50 [4]: 0.317 µM (active)
EC50 [5]: 0.316 µM (active)

CC1(C)C2CC[C@]3(C)[C@H](C(=O)C=C4[C@@H]5C[C@@](C)(C(=O)O)CC[C@]5(C)CC[C@]43C)[C@@]2(C)CC[C@@H]1O[C@H]1O[C@H](C(=O)O)[C@@H](O)[C@H](O)[C@H]1O[C@@H]1O[C@H](C(=O)O)[C@@H](O)[C@H](O)[C@H]1O (stereo partly drawn)
IC50 [1]: 9.45 µM (active)
IC50 [2]: > 66.6 µM (inactive)

COc1ccc(S(=O)(=O)Nc2ccc3c(c2)CC(=O)N([C@H](C)CO)C[C@H](C)[C@H](CN(C)S(=O)(=O)c2ccccc2)O3)cc1
AC50 [6]: 2.09 µM (active)
AC50 [7]: < 0.26 µM (active)

Cc1noc(C)c1S(=O)(=O)N(C)C[C@@H]1Oc2ccc(NC(=O)NC3CCCCC3)cc2CC(=O)N([C@H](C)CO)C[C@@H]1C
AC50 [8]: 4.3 µM (active)
AC50 [6]: 4.26 µM (active)
AC50 [7]: 5.98 µM (active)

C/C(=N\Nc1nc(C(=O)O)cs1)c1ccccc1
IC50 (Aminopeptidase N): 34.2 µM (active)

O=C(O)/C(CC(=O)c1ccc(Cl)cc1)=N/Nc1ccc([N+](=O)[O-])cc1[N+](=O)[O-]
IC50 (Genome polyprotein): 12.5 µM (active)

C=CC(=O)Nc1cccc(Oc2ccnc(Nc3ccc(N4CCN(C)CC4)cc3)n2)c1
IC50 (Nonstructural protein 1): 23.1 µM (active)

Cc1ccc(/C=N/NC(=O)C(O)c2ccccc2)o1 (stereo not drawn)
EC50 [4]: > 112 µM (not active)
EC50 [5]: > 112 µM (not active)

Cc1ccc(NC(C)C(=O)N/N=C/c2c[nH]c3ccccc23)cc1 (stereo not drawn)
EC50 [4]: > 112 µM (not active)
EC50 [5]: > 112 µM (not active)

Oc1cccc2ccc(/C=C/c3ccccc3Br)nc12
EC50 [9]: 212 nM (active)
EC50 (BJ [10]): 20 µM (active)
AC50 [3]: 12.9 µM (active)
EC50 (Streptococcus): 3.96 µM (active)
EC50 (BJ [11]): 18.1 µM (active)
EC50 (BJ [12]): 108 µM (active)
EC50 [13]: 17.4 µM (active)
